Measurements as given in US9738634B2, “Heterocyclic amide compound and herbicide” (SYNGENTA PARTICIPATIONS AG, priority 2013, dated 2017).

How the values were obtained:
Format in all cases: in vivo
Settings in all cases: treatment dosage 320 g/ha
barnyard grass [1] = test: Test Example 1: weedkilling efficacy, preemergent weed treatment in the submerged state; A: barnyard grass
Outline: (§1)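 Pre-emergence paddy test: weed seeds sown in submerged alluvial soil (4 cm water), 2.5-leaf rice transplanted, water-diluted emulsion applied to water surface at sowing at stated g/ha. Scored at 3 weeks, greenhouse 25–30 °C.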

bulrush [2] = test: Test Example 1: weedkilling efficacy, preemergent weed treatment in the submerged state; B: bulrush
Outline: as §1

oval-leafed pondweed [3] = test: Test Example 1: weedkilling efficacy, preemergent weed treatment in the submerged state; C: oval-leafed pondweed
Outline: as §1

transplanted rice = test: Test Example 1: preemergent weed treatment in the submerged state, effect on crop; a: transplanted rice
Outline: as §1

barnyard grass [4] = test: Test Example 2: weedkilling efficacy, growth period weed treatment in the submerged state; A: barnyard grass
Outline: (§2)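 Seedlings at 1-2 leaves in 4 cm-deep submerged alluvial soil received emulsion formulations on the water surface, dosed per hectare; effects were judged 3 weeks on.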

bulrush [5] = test: Test Example 2: weedkilling efficacy, growth period weed treatment in the submerged state; B: bulrush
Outline: as §2

oval-leafed pondweed [6] = test: Test Example 2: weedkilling efficacy, growth period weed treatment in the submerged state; C: oval-leafed pondweed
Outline: as §2

crabgrass [7] = test: Test Example 3: weedkilling efficacy through soil treatment; D: crabgrass
Outline: (§3)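 Crop and weed responses were judged three weeks after a uniform surface spray of the water-diluted emulsion at the given g/ha rate. Seeds sat beneath about 1.5 cm of sterilized diluvial soil, and boxes stood in a greenhouse at 25 to 30° C.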

green foxtail [8] = test: Test Example 3: weedkilling efficacy through soil treatment; E: green foxtail
Outline: as §3

barnyard grass [9] = test: Test Example 3: weedkilling efficacy through soil treatment; F: barnyard grass
Outline: as §3

wild oat [10] = test: Test Example 3: weedkilling efficacy through soil treatment; G: wild oat
Outline: as §3

black-grass [11] = test: Test Example 3: weedkilling efficacy through soil treatment; H: black-grass
Outline: as §3

Italian ryegrass [12] = test: Test Example 3: weedkilling efficacy through soil treatment; I: Italian ryegrass
Outline: as §3

common wind-grass [13] = test: Test Example 3: weedkilling efficacy through soil treatment; J: common wind-grass
Outline: as §3

Indian mallow [14] = test: Test Example 3: weedkilling efficacy through soil treatment; K: Indian mallow
Outline: as §3

redroot pigweed [15] = test: Test Example 3: weedkilling efficacy through soil treatment; L: redroot pigweed
Outline: as §3

fig-leafed goosefoot = test: Test Example 3: weedkilling efficacy through soil treatment; M: fig-leafed goosefoot
Outline: as §3

chickweed [16] = test: Test Example 3: weedkilling efficacy through soil treatment; N: chickweed
Outline: as §3

catchweed [17] = test: Test Example 3: weedkilling efficacy through soil treatment; O: catchweed
Outline: as §3

birds-eye speedwell [18] = test: Test Example 3: weedkilling efficacy through soil treatment; p: birds-eye speedwell
Outline: as §3

directly sown rice [19] = test: Test Example 3: soil treatment, effect on crop; b: directly sown rice
Outline: as §3

corn [20] = test: Test Example 3: soil treatment, effect on crop; c: corn
Outline: as §3

soybean [21] = test: Test Example 3: soil treatment, effect on crop; d: soybean
Outline: as §3

wheat [22] = test: Test Example 3: soil treatment, effect on crop; e: wheat
Outline: as §3

beet [23] = test: Test Example 3: soil treatment, effect on crop; f: beet
Outline: as §3

rapeseed [24] = test: Test Example 3: soil treatment, effect on crop; g: rapeseed
Outline: as §3

crabgrass [25] = test: Test Example 4: weedkilling efficacy by foliar treatment; D: crabgrass
Outline: (§4)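 Seeds are spot-sown into sterilized diluvial soil and covered with about 1.5 cm of soil. After 14 days' greenhouse growth at 25 to 30° C, plants are sprayed on stems and leaves with diluted emulsion at the stated g/ha rate, then scored at 3 weeks.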

green foxtail [26] = test: Test Example 4: weedkilling efficacy by foliar treatment; E: green foxtail
Outline: as §4

barnyard grass [27] = test: Test Example 4: weedkilling efficacy by foliar treatment; F: barnyard grass
Outline: as §4

wild oat [28] = test: Test Example 4: weedkilling efficacy by foliar treatment; G: wild oat
Outline: as §4

black-grass [29] = test: Test Example 4: weedkilling efficacy by foliar treatment; H: black-grass
Outline: as §4

Italian ryegrass [30] = test: Test Example 4: weedkilling efficacy by foliar treatment; I: Italian ryegrass
Outline: as §4

common wind-grass [31] = test: Test Example 4: weedkilling efficacy by foliar treatment; J: common wind-grass
Outline: as §4

Indian mallow [32] = test: Test Example 4: weedkilling efficacy by foliar treatment; K: Indian mallow
Outline: as §4

redroot pigweed [33] = test: Test Example 4: weedkilling efficacy by foliar treatment; L: redroot pigweed
Outline: as §4

chickweed [34] = test: Test Example 4: weedkilling efficacy by foliar treatment; N: chickweed
Outline: as §4

catchweed [35] = test: Test Example 4: weedkilling efficacy by foliar treatment; O: catchweed
Outline: as §4

birds-eye speedwell [36] = test: Test Example 4: weedkilling efficacy by foliar treatment; p: birds-eye speedwell
Outline: as §4

directly sown rice [37] = test: Test Example 4: foliar treatment, effect on crop; b: directly sown rice
Outline: as §4

corn [38] = test: Test Example 4: foliar treatment, effect on crop; c: corn
Outline: as §4

soybean [39] = test: Test Example 4: foliar treatment, effect on crop; d: soybean
Outline: as §4

wheat [40] = test: Test Example 4: foliar treatment, effect on crop; e: wheat
Outline: as §4

beet [41] = test: Test Example 4: foliar treatment, effect on crop; f: beet
Outline: as §4

rapeseed [42] = test: Test Example 4: foliar treatment, effect on crop; g: rapeseed
Outline: as §4

CC1=C(c2ccccc2)C(=O)N(C(C)(C)C(=O)Nc2cccc(CF)n2)CO1 [B-2-56]
A (barnyard grass) weedkilling efficacy grade (barnyard grass [1]): 5 (weed kill ratio 90% or more, (practically complete withering))
B (bulrush) weedkilling efficacy grade (bulrush [2]): 5 (weed kill ratio 90% or more, (practically complete withering))
C (oval-leafed pondweed) weedkilling efficacy grade (oval-leafed pondweed [3]): 5 (weed kill ratio 90% or more, (practically complete withering))
a (transplanted rice) effect on crop grade (transplanted rice): 1 (weed kill ratio 5% or more, less than 20%)
A (barnyard grass) weedkilling efficacy grade (barnyard grass [4]): 5 (weed kill ratio 90% or more, (practically complete withering))
B (bulrush) weedkilling efficacy grade (bulrush [5]): 5 (weed kill ratio 90% or more, (practically complete withering))
C (oval-leafed pondweed) weedkilling efficacy grade (oval-leafed pondweed [6]): 5 (weed kill ratio 90% or more, (practically complete withering))
D (crabgrass) weedkilling efficacy grade (crabgrass [7]): 5 (weed kill ratio 90% or more, (practically complete withering))
E (green foxtail) weedkilling efficacy grade (green foxtail [8]): 5 (weed kill ratio 90% or more, (practically complete withering))
F (barnyard grass) weedkilling efficacy grade (barnyard grass [9]): 5 (weed kill ratio 90% or more, (practically complete withering))
G (wild oat) weedkilling efficacy grade (wild oat [10]): 3 (weed kill ratio 40% or more, less than 70%)
H (black-grass) weedkilling efficacy grade (black-grass [11]): 5 (weed kill ratio 90% or more, (practically complete withering))
I (Italian ryegrass) weedkilling efficacy grade (Italian ryegrass [12]): 5 (weed kill ratio 90% or more, (practically complete withering))
J (common wind-grass) weedkilling efficacy grade (common wind-grass [13]): 5 (weed kill ratio 90% or more, (practically complete withering))
K (Indian mallow) weedkilling efficacy grade (Indian mallow [14]): 0 (weed kill ratio 5% or less (practically no effect))
L (redroot pigweed) weedkilling efficacy grade (redroot pigweed [15]): 2 (weed kill ratio 20% or more, less than 40%)
M (fig-leafed goosefoot) weedkilling efficacy grade (fig-leafed goosefoot): 4 (weed kill ratio 70% or more, less than 90%)
N (chickweed) weedkilling efficacy grade (chickweed [16]): 4 (weed kill ratio 70% or more, less than 90%)
O (catchweed) weedkilling efficacy grade (catchweed [17]): 5 (weed kill ratio 90% or more, (practically complete withering))
P (birds-eye speedwell) weedkilling efficacy grade (birds-eye speedwell [18]): 5 (weed kill ratio 90% or more, (practically complete withering))
b (directly sown rice) effect on crop grade (directly sown rice [19]): 2 (weed kill ratio 20% or more, less than 40%)
c (corn) effect on crop grade (corn [20]): 1 (weed kill ratio 5% or more, less than 20%)
d (soybean) effect on crop grade (soybean [21]): 0 (weed kill ratio 5% or less (practically no effect))
e (wheat) effect on crop grade (wheat [22]): 1 (weed kill ratio 5% or more, less than 20%)
f (beet) effect on crop grade (beet [23]): 2 (weed kill ratio 20% or more, less than 40%)
g (rapeseed) effect on crop grade (rapeseed [24]): 1 (weed kill ratio 5% or more, less than 20%)
D (crabgrass) weedkilling efficacy grade (crabgrass [25]): 5 (weed kill ratio 90% or more, (practically complete withering))
E (green foxtail) weedkilling efficacy grade (green foxtail [26]): 5 (weed kill ratio 90% or more, (practically complete withering))
F (barnyard grass) weedkilling efficacy grade (barnyard grass [27]): 4 (weed kill ratio 70% or more, less than 90%)
G (wild oat) weedkilling efficacy grade (wild oat [28]): 5 (weed kill ratio 90% or more, (practically complete withering))
H (black-grass) weedkilling efficacy grade (black-grass [29]): 4 (weed kill ratio 70% or more, less than 90%)
I (Italian ryegrass) weedkilling efficacy grade (Italian ryegrass [30]): 5 (weed kill ratio 90% or more, (practically complete withering))
J (common wind-grass) weedkilling efficacy grade (common wind-grass [31]): 5 (weed kill ratio 90% or more, (practically complete withering))
K (Indian mallow) weedkilling efficacy grade (Indian mallow [32]): 0 (weed kill ratio 5% or less (practically no effect))
L (redroot pigweed) weedkilling efficacy grade (redroot pigweed [33]): 3 (weed kill ratio 40% or more, less than 70%)
N (chickweed) weedkilling efficacy grade (chickweed [34]): 4 (weed kill ratio 70% or more, less than 90%)
O (catchweed) weedkilling efficacy grade (catchweed [35]): 4 (weed kill ratio 70% or more, less than 90%)
P (birds-eye speedwell) weedkilling efficacy grade (birds-eye speedwell [36]): 4 (weed kill ratio 70% or more, less than 90%)
b (directly sown rice) effect on crop grade (directly sown rice [37]): 4 (weed kill ratio 70% or more, less than 90%)
c (corn) effect on crop grade (corn [38]): 5 (weed kill ratio 90% or more, (practically complete withering))
d (soybean) effect on crop grade (soybean [39]): 4 (weed kill ratio 70% or more, less than 90%)
e (wheat) effect on crop grade (wheat [40]): 3 (weed kill ratio 40% or more, less than 70%)
f (beet) effect on crop grade (beet [41]): 3 (weed kill ratio 40% or more, less than 70%)
g (rapeseed) effect on crop grade (rapeseed [42]): 3 (weed kill ratio 40% or more, less than 70%)
